In patent US20250312499A1, “KISSPEPTIN RECEPTOR (KISS1R) TARGETED THERAPEUTICS AND USES THEREOF” (priority 2024, published 2025):
Numbered stars: 1 amine (or outer) side, 2 acyl side, 3 side chain; on linkers, the order of the positions; unused ones are H or OH. Square brackets hold non-standard residues; d marks the D form. Peptide text beside a SMILES is read from it. * marks the point of attachment. DOTA = O=C(O)CN1CCN(CC(=O)O)CCN(CC(=O)*)CCN(CC(=O)O)CC1; Gly(N-(3-F-4-Me-benzyl)) = Cc1ccc(CNCC(=O)*)cc1F; X11 = O=C(c1ccc(-c2ccccc2)c(OCCN[*:1])c1)[*:2]; Api(1-amidino) = N=C(N)N1CCC(N)(C(=O)O)CC1; Bip = N[C@@H](Cc1ccc(-c2ccccc2)cc1)C(=O)O; Phe(4-CN) = N#Cc1ccc(C[C@H](N)C(=O)O)cc1; 2Nal = N[C@@H](Cc1ccc2ccccc2c1)C(=O)O; d2Nal = N[C@H](Cc1ccc2ccccc2c1)C(=O)O; 4Pal = N[C@@H](Cc1ccncc1)C(=O)O; d4Pal = N[C@H](Cc1ccncc1)C(=O)O; 4Amb = NCc1ccc(C(=O)O)cc1; Api = NC1(C(=O)O)CCNCC1; Ahx = NCCCCCC(=O)O; azaGly = NNC(=O)O

biological target: human kisspeptin receptor (Homo sapiens (Human), UniProt Q969F8); test: Human KISS1R binding assay (membrane competition binding); conditions: 90 min at room temperature; competition with 0.2 nM [125I]-metastin (45-54); Flp-In T-Rex 293 kisspeptin membranes; metal complexes nonradioactive Ga, In, Lu; read-out: hKiSSR Binding Ki (90 min)
In short: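 Membranes from tetracycline-induced (48 h) Flp-In T-Rex 293 cells expressing receptor, 5–10 μg, incubated 90 min at room temperature with 0.2 nM [125I]-metastin (45-54) and competitor (typically 0–10,000 nM) in Tris/Mg/Ca/EGTA/0.1% BSA, pH 7.4. Filtration, washing, counting; Ki by non-linear regression.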

Chain of human kisspeptin receptor (Q969F8 whole entry): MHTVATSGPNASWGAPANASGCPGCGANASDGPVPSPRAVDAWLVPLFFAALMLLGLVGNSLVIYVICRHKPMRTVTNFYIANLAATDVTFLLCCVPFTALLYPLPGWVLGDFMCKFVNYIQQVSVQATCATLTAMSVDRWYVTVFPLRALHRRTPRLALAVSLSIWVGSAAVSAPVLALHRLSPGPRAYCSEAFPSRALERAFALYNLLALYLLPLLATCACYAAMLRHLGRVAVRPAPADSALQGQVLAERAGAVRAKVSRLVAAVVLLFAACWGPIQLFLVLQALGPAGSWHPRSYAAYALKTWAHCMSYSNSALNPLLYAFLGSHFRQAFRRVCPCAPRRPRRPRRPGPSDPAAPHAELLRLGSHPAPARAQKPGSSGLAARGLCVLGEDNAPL

| Ki [nM] | SMILES |
| --- | --- |
| < 10 | CC(C)C[C@H](NC(=O)NNC(=O)[C@H](Cc1ccccc1)NC(=O)[C@@H](NC(=O)[C@H](CC(N)=O)NC(=O)[C@@H](Cc1ccc2ccccc2c1)NC(=O)[C@@H](Cc1ccc(O)cc1)NC(=O)CCCCCNC(=O)CN1CCN(CC(=O)O)CCN(CC(=O)O)CCN(CC(=O)O)CC1)[C@@H](C)O)C(=O)NC1(C(=O)N[C@@H](Cc2c[nH]c3ccccc23)C(N)=O)CCN(C(=N)N)CC1 [Compound 269] ({DOTA-Ahx}-[dY][d2Nal]NTF[azaGly]L[Api(1-amidino)]W-NH2) |
| < 10 | CC(C)C[C@H](NC(=O)NNC(=O)[C@H](Cc1ccccc1)NC(=O)[C@@H](NC(=O)[C@H](CC(N)=O)NC(=O)[C@@H](Cc1c[nH]c2ccccc12)NC(=O)[C@@H](Cc1ccc(O)cc1)NC(=O)c1ccc(CNC(=O)CCCCCNC(=O)CN2CCN(CC(=O)O)CCN(CC(=O)O)CCN(CC(=O)O)CC2)cc1)[C@@H](C)O)C(=O)NC1(C(=O)N[C@@H](Cc2c[nH]c3ccccc23)C(N)=O)CCN(C(=N)N)CC1 [Compound 270] ({DOTA-Ahx-4Amb}-[dY][dW]NTF[azaGly]L[Api(1-amidino)]W-NH2) |
| 10 to 100 | CC(C)C[C@H](NC(=O)NNC(=O)[C@H](Cc1ccc(-c2ccccc2)cc1)NC(=O)[C@@H](NC(=O)[C@H](CC(N)=O)NC(=O)[C@@H](Cc1c[nH]c2ccccc12)NC(=O)[C@@H](Cc1ccc(O)cc1)NC(=O)CCCCCNC(=O)CN1CCN(CC(=O)O)CCN(CC(=O)O)CCN(CC(=O)O)CC1)[C@@H](C)O)C(=O)NC1(C(=O)N[C@@H](Cc2c[nH]c3ccccc23)C(N)=O)CCN(C(=N)N)CC1 [Compound 271] ({DOTA-Ahx}-[dY][dW]NT[Bip][azaGly]L[Api(1-amidino)]W-NH2) |
| < 10 | CC(C)C[C@H](NC(=O)NNC(=O)[C@H](Cc1ccccc1)NC(=O)[C@@H](NC(=O)[C@H](CC(N)=O)NC(=O)c1ccc(CNC(=O)CN2CCN(CC(=O)O)CCN(CC(=O)O)CCN(CC(=O)O)CC2)cc1)[C@@H](C)O)C(=O)NC1(C(=O)N[C@@H](Cc2ccncc2)C(N)=O)CCN(C(=N)N)CC1 [Compound 272] ({DOTA-4Amb}-NTF[azaGly]L[Api(1-amidino)][4Pal]-NH2) |
| 10 to 100 | CC(C)C[C@H](NC(=O)NNC(=O)[C@H](Cc1ccccc1)NC(=O)[C@@H](NC(=O)[C@H](CC(N)=O)NC(=O)[C@H](Cc1ccncc1)NC(=O)[C@@H](Cc1ccc(O)cc1)NC(=O)CN1CCN(CC(=O)O)CCN(CC(=O)O)CCN(CC(=O)O)CC1)[C@@H](C)O)C(=O)NC1(C(=O)N[C@@H](Cc2ccncc2)C(N)=O)CCN(C(=N)N)CC1 [Compound 273] ({DOTA}-[dY][4Pal]NTF[azaGly]L[Api(1-amidino)][4Pal]-NH2) |
| < 10 | CC(C)C[C@H](NC(=O)NNC(=O)[C@H](Cc1ccccc1)NC(=O)[C@@H](NC(=O)[C@H](CC(N)=O)NC(=O)[C@H](Cc1ccc2ccccc2c1)NC(=O)[C@@H](Cc1ccc(O)cc1)NC(=O)CCCCCNC(=O)CN1CCN(CC(=O)O)CCN(CC(=O)O)CCN(CC(=O)O)CC1)[C@@H](C)O)C(=O)NC1(C(=O)N[C@@H](Cc2ccncc2)C(N)=O)CCN(C(=N)N)CC1 [Compound 275] ({DOTA-Ahx}-[dY][2Nal]NTF[azaGly]L[Api(1-amidino)][4Pal]-NH2) |
| < 10 | CC(C)C[C@H](NC(=O)NNC(=O)[C@H](Cc1ccccc1)NC(=O)[C@@H](NC(=O)[C@H](CC(N)=O)NC(=O)[C@H](Cc1ccc2ccccc2c1)NC(=O)[C@@H](Cc1ccc(O)cc1)NC(=O)CCCCCNC(=O)CN1CCN(CC(=O)O)CCN(CC(=O)O)CCN(CC(=O)O)CC1)[C@@H](C)O)C(=O)NC1(C(=O)N[C@@H](Cc2ccc(O)cc2)C(N)=O)CCN(C(=N)N)CC1 [Compound 276] ({DOTA-Ahx}-[dY][2Nal]NTF[azaGly]L[Api(1-amidino)]Y-NH2) |
| < 10 | CC(C)C[C@H](NC(=O)NNC(=O)[C@H](Cc1ccccc1)NC(=O)[C@@H](NC(=O)[C@H](CC(N)=O)NC(=O)[C@H](Cc1ccc2ccccc2c1)NC(=O)[C@@H](Cc1ccc(O)cc1)NC(=O)CCCCCNC(=O)CN1CCN(CC(=O)O)CCN(CC(=O)O)CCN(CC(=O)O)CC1)[C@@H](C)O)C(=O)NC1(C(=O)N[C@@H](Cc2ccccc2)C(N)=O)CCN(C(=N)N)CC1 [Compound 277] ({DOTA-Ahx}-[dY][2Nal]NTF[azaGly]L[Api(1-amidino)]F-NH2) |
| < 10 | CC(C)C[C@H](NC(=O)NNC(=O)[C@H](Cc1ccccc1)NC(=O)[C@@H](NC(=O)[C@H](CC(N)=O)NC(=O)[C@H](Cc1ccc2ccccc2c1)NC(=O)[C@@H](Cc1ccc(O)cc1)NC(=O)CCCCCNC(=O)CN1CCN(CC(=O)O)CCN(CC(=O)O)CCN(CC(=O)O)CC1)[C@@H](C)O)C(=O)NC1(C(=O)N[C@@H](Cc2ccc(C#N)cc2)C(N)=O)CCN(C(=N)N)CC1 [Compound 278] ({DOTA-Ahx}-[dY][2Nal]NTF[azaGly]L[Api(1-amidino)][Phe(4-CN)]-NH2) |
| < 10 | Cc1ccc(CNCC(=O)N2CCC(NC(=O)c3ccc(-c4ccccc4)c(OCCNC(=O)[C@H](Cc4ccccc4)NC(=O)[C@@H](NC(=O)[C@H](CC(N)=O)NC(=O)[C@@H](Cc4c[nH]c5ccccc45)NC(=O)[C@@H](Cc4ccc(O)cc4)NC(=O)CCCCCNC(=O)CN4CCN(CC(=O)O)CCN(CC(=O)O)CCN(CC(=O)O)CC4)[C@@H](C)O)c3)(C(=O)N[C@@H](Cc3c[nH]c4ccccc34)C(N)=O)CC2)cc1F [Compound 279] ({DOTA-Ahx}-[dY][dW]NTF[X11][Api](Gly(N-(3-F-4-Me-benzyl)))W-NH2) |
| < 10 | Cc1ccc(CNCC(=O)N2CCC(NC(=O)[C@H](CC(C)C)NC(=O)NNC(=O)[C@H](Cc3ccccc3)NC(=O)[C@@H](NC(=O)[C@H](CC(N)=O)NC(=O)[C@@H](Cc3ccncc3)NC(=O)[C@@H](Cc3ccc(O)cc3)NC(=O)CN3CCN(CC(=O)O)CCN(CC(=O)O)CCN(CC(=O)O)CC3)[C@@H](C)O)(C(=O)N[C@@H](Cc3ccncc3)C(N)=O)CC2)cc1F [Compound 281] ({DOTA}-[dY][d4Pal]NTF[azaGly]L[Api](Gly(N-(3-F-4-Me-benzyl)))[4Pal]-NH2) |
| 10 to 100 | Cc1ccc(CNCC(=O)N2CCC(NC(=O)c3ccc(-c4ccccc4OCCNC(=O)[C@H](Cc4ccccc4)NC(=O)CCCCCNC(=O)CN4CCN(CC(=O)O)CCN(CC(=O)O)CCN(CC(=O)O)CC4)cc3)(C(=O)N[C@@H](Cc3c[nH]c4ccccc34)C(N)=O)CC2)cc1F [Compound 283] |
| 10 to 100 | CCc1cc(-c2ccccc2OCCNC(=O)[C@H](Cc2ccccc2)NC(=O)CCCCCNC(=O)CN2CCN(CC(=O)O)CCN(CC(=O)O)CCN(CC(=O)O)CC2)ccc1C(=O)NC1(C(=O)N[C@@H](Cc2c[nH]c3ccccc23)C(N)=O)CCN(C(=O)CNCc2ccc(C)c(F)c2)CC1 [Compound 284] |
| < 10 | Cc1ccc(CNCC(=O)N2CCC(NC(=O)[C@H](CC(C)C)NC(=O)NNC(=O)[C@H](Cc3ccccc3)NC(=O)CCCCCNC(=O)[C@H](Cc3ccc4ccccc4c3)NC(=O)[C@@H](Cc3ccc(O)cc3)NC(=O)CN3CCN(CC(=O)O)CCN(CC(=O)O)CCN(CC(=O)O)CC3)(C(=O)N[C@@H](Cc3c[nH]c4ccccc34)C(N)=O)CC2)cc1F [Compound 285] ({DOTA}-[dY][2Nal][Ahx]F[azaGly]L[Api](Gly(N-(3-F-4-Me-benzyl)))W-NH2) |
| < 10 | Cc1ccc(CNCC(=O)N2CCC(NC(=O)[C@H](CC(C)C)NC(=O)NNC(=O)[C@H](Cc3ccccc3)NC(=O)CCCCCNC(=O)[C@H](Cc3ccc4ccccc4c3)NC(=O)[C@@H](Cc3ccc(O)cc3)NC(=O)CN3CCN(CC(=O)O)CCN(CC(=O)O)CCN(CC(=O)O)CC3)(C(=O)N[C@@H](Cc3ccncc3)C(N)=O)CC2)cc1F [Compound 286] ({DOTA}-[dY][2Nal][Ahx]F[azaGly]L[Api](Gly(N-(3-F-4-Me-benzyl)))[4Pal]-NH2) |
| 10 to 100 | CC(C)C[C@H](NC(=O)NNC(=O)[C@H](Cc1ccccc1)NC(=O)CCCCCNC(=O)[C@H](Cc1ccc2ccccc2c1)NC(=O)[C@@H](Cc1ccc(O)cc1)NC(=O)CN1CCN(CC(=O)O)CCN(CC(=O)O)CCN(CC(=O)O)CC1)C(=O)NC1(C(=O)N[C@@H](Cc2c[nH]c3ccccc23)C(N)=O)CCN(C(=N)N)CC1 [Compound 287] ({DOTA}-[dY][2Nal][Ahx]F[azaGly]L[Api(1-amidino)]W-NH2) |
| < 10 | CC(C)C[C@H](NC(=O)NNC(=O)[C@H](Cc1ccccc1)NC(=O)c1ccc(CNC(=O)[C@H](Cc2ccc3ccccc3c2)NC(=O)[C@@H](Cc2ccc(O)cc2)NC(=O)CN2CCN(CC(=O)O)CCN(CC(=O)O)CCN(CC(=O)O)CC2)cc1)C(=O)NC1(C(=O)N[C@@H](Cc2ccccc2)C(N)=O)CCN(C(=N)N)CC1 [Compound 288] ({DOTA}-[dY][2Nal][4Amb]F[azaGly]L[Api(1-amidino)]F-NH2) |
| < 10 | CC(C)C[C@H](NC(=O)NNC(=O)[C@H](Cc1ccccc1)NC(=O)CCCCCNC(=O)[C@H](Cc1ccc2ccccc2c1)NC(=O)[C@@H](Cc1ccc(O)cc1)NC(=O)CN1CCN(CC(=O)O)CCN(CC(=O)O)CCN(CC(=O)O)CC1)C(=O)NC1(C(=O)N[C@@H](Cc2ccccc2)C(N)=O)CCN(C(=N)N)CC1 [Compound 289] ({DOTA}-[dY][2Nal][Ahx]F[azaGly]L[Api(1-amidino)]F-NH2) |
| < 10 | Cc1ccc(CNCC(=O)N2CCC(NC(=O)[C@H](CC(C)C)NC(=O)NNC(=O)[C@H](Cc3ccccc3)NC(=O)[C@@H](NC(=O)[C@H](CC(N)=O)NC(=O)[C@@H](Cc3c[nH]c4ccccc34)NC(=O)CCCCCNC(=O)CN3CCN(CC(=O)O)CCN(CC(=O)O)CCN(CC(=O)O)CC3)[C@@H](C)O)(C(=O)N[C@@H](Cc3ccncc3)C(N)=O)CC2)cc1F [Compound 290] ({DOTA-Ahx}-[dW]NTF[azaGly]L[Api](Gly(N-(3-F-4-Me-benzyl)))[4Pal]-NH2) |

| SMILES | Ki [nM] |
| --- | --- |
| Cc1ccc(CNCC(=O)N2CCC(NC(=O)c3ccc(-c4ccccc4)c(OCCNNC(=O)[C@H](Cc4ccccc4)NC(=O)CCCCCNC(=O)CN4CCN(CC(=O)O)CCN(CC(=O)O)CCN(CC(=O)O)CC4)c3)(C(=O)N[C@@H](Cc3c[nH]c4ccccc34)C(N)=O)CC2)cc1F [Compound 280] | > 100 |
| Cc1ccc(CNCC(=O)N2CCC(NC(=O)c3cc(OCCNC(=O)[C@H](Cc4ccccc4)NC(=O)CCCCCNC(=O)CN4CCN(CC(=O)O)CCN(CC(=O)O)CCN(CC(=O)O)CC4)c(-c4ccccc4)cc3C)(C(=O)N[C@@H](Cc3c[nH]c4ccccc34)C(N)=O)CC2)cc1F [Compound 282] | > 100 |
